Patent publication US8076334B2, “Prodrugs of thyroid hormone analogs” (Hoffmann-La Roche Inc., priority 2007, dated 2011)

Legend:
[1] = Permeability from Caco-2 cells (transport assay); assay type: in vitro ADME; conditions: human; Caco-2 monolayers, transport medium pH 7.4, samples at 60 and 120 min
Procedure: (§1) Caco-2 cells were grown in Minimum Essential Medium (MEM), containing 10% fetal bovine serum, 1% non-essential amino acids, 100 units/ml penicillin and 100 μg/ml streptomycin. They were incubated at 37° C. in a humidified atmosphere of 5% CO2. Culture medium was changed every other day. Caco-2 cells were passed once per week by trypsinization.
(§2) Caco-2 cells were seeded at a density of 4.55×10^5 cells/cm^2. Caco-2 cells were incubated for 7 days at 37° C. Medium was changed every two or three days for Caco-2 cells. Prior to the experiment, cells were equilibrated with transport medium [HBSS (pH 7.4) containing 10 mM HEPES] at 37° C. for 30 min. The transepithelial electrical resistance (TEER) of cell monolayers was measured using “chopstick” electrodes (World Precision Instruments, Sarasota, Fla.). Caco-2 cell monolayers with TEER values>500 were used for the assays.
(§3) Samples were prepared in transport medium containing 1% DMSO. Test compounds were applied to the donor chamber at 10 μM. Plates were incubated at 37 °C while shaking at 90 rpm. Samples were taken at 60 and 120 min from the receiver chamber. TEER values were measured at 5 minutes before the final sampling time point. Samples were mixed with 2 volumes of acetonitrile and centrifuged at 3,500 rpm at 4° C. for 10 min. The supernatant was diluted with 1 volume of water containing 1% acetic acid. Samples were analyzed by LC/MS. Standard serial dilutions were prepared manually at 10, 50, 250, 1,250 and 2,500 nM.
(§4) The apparent permeability (Papp) was calculated with the following equation:
(§5) [formula] where C is the receiver chamber drug concentration, t is time in second, V is the volume of the receiver chamber, Co is the initial drug concentration in the donor chamber and A is the surface area of the filter.

Caco-2 cells = assay: Permeability from Caco-2 cells (transport assay); assay type: in vitro ADME; conditions: Caco-2; calculated from pro-drug only, does not include converted drug; in % (unit assumed)
Procedure: as §1, §2, §3, §4, §5

[2] = Single dose PO PK in dogs; assay type: in vivo; conditions: dog, 10 mg/kg PO
Procedure: A single dose (10 mg/kg) PO (intubation) PK in dogs (3 animals) was performed with the compound of Example 5 using a 2% Klucel, 0.1% Tween 80 in water formulation.
Aliquots (0.05 mL) of dog plasma were mixed with 0.050 mL of pH 7.4 phosphate buffered saline and a 0.010 mL aliquot of a stable labeled internal standard working solution. Each of the samples was then extracted with 0.500 mL of ethyl acetate. A 0.350 mL aliquot of each of the sample extract supernatant was transferred to an injection block and evaporated to dryness using the turbovap evaporator. The sample was then reconstituted with 0.200 mL of a 1:1 mixture of water:acetonitrile containing 0.1% acetic acid. A 0.020 mL sample from each well was injected onto the LC/MS/MS system.
The compound of Example 5was dosed orally to dogs at 10 mg/kg. Both the prodrug and parent, compound Ia, were monitored. […] However, the variability in the oral exposure was reduced when dosed with the compound of Example 5 as compared when dosed with parent.

[3] = Single dose PO PK in rats; assay type: in vivo; conditions: rat, 10 mg/kg PO
Procedure: A single dose (10 mg/kg) PO (intubation) PK in rats (3 animals) was performed with the compound of Example 5 using a 2% Klucel, 0.1% Tween 80 in water formulation.
Aliquots (0.05 mL) of rat plasma were protein precipitated with acetonitrile. The extracts were diluted with an equal volume of water and injected onto the LC/MS/MS system.
Both the prodrug and parent, compound Ia, were monitored. […] Variability in exposure of the parent after dosing with the prodrug was improved over that obtained after dosing with parent.

THR-beta/RXR/GRIP = target: T1, THR-beta/RXR/GRIP (Homo sapiens, UniProt P10828); assay: THR-beta/RXR/GRIP coactivator peptide recruitment assay (HTRF); assay type: biochemical; conditions: H6-TRβ ligand binding domain, EE-RxRα, biotin-GRIP peptide
T1 construct: made in house; host or cells: E. coli BL21 (DE3) for H6-TRβ; E. coli for EE-RxRα
T1 sequence (P10828 202-461 limits assumed): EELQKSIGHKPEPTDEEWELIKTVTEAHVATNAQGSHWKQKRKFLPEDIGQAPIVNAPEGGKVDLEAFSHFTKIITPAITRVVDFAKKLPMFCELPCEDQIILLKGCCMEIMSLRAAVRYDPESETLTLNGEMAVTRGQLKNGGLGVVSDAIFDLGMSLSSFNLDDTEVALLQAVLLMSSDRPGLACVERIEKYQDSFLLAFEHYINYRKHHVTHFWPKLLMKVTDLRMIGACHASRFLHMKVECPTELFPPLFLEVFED
T1 sequence (P19793 225-462 partner limits assumed): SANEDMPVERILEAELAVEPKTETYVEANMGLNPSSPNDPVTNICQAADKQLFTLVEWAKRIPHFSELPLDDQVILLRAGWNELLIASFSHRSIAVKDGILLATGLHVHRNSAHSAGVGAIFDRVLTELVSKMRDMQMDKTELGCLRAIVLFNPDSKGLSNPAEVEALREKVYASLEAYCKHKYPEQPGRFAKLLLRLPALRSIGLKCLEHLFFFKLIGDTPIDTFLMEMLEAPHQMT
T1 sequence (Q15596 679-703 partner limits assumed): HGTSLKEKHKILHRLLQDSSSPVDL
Procedure: In this Example, a TR/RXR/GRIP assay was used to test representative compounds of formula (I).
Lysozyme (1.0 mg/ml, Sigma) and Complete Protease Inhibitor Cocktail (Roche Diagnostics Gmbh) were added to slurry and solution sonicated for one min five times at 4° C.
The resulting His6-EE-tagged protein was produced in E. coli cells. Cells were grown using shake flasks with an 18 hour induction in 0.1 mM IPTG at 18° C., harvested and suspended with five volumes of Buffer B (0.025M Tris, 0.3M NaCl, 0.02 M imidazole, 0.01M β-mercaptoethanol, pH 8.0). Lysozyme (0.2 mg/ml, Sigma) and Complete Protease Inhibitor Cocktail (Roche Diagnostics Gmbh) were added and stirred for 30 min. at 4° C. The suspension was sonicated for 30 seconds, five times, at 4° C. The suspension was centrifuged for 20 min. at 12,000 RCF. The supernatant was filtered by 0.45 μm pore size membrane and 0.5% NP-40 was added. […] The protein was concentrated and dialyzed.
The His6 tag was removed from EE-RxRα by thrombin digestion, using 10 units thrombin (Pharmacia, Piscataway, N.J.) per mg protein and incubating for 2 hours at 25° C. […]
Six microliters of T3 (0-14.8 uM) or test compound (0-1.2 mM) in DMSO was then added and the solution incubated at 37° C. for 30 min. […] The HTRF signal was read on the Victor 5 reader (PerkinElmer Life and Analytical Sciences).

[4] = plasma level of parent compound Ia

Compound | Papp at 120 min, 10 μM [1] | Mass Balance (Caco-2 cells) | other results
CC(=O)OCn1nc(Oc2c(Cl)cc(-n3nc(C#N)c(=O)[nH]c3=O)cc2Cl)cc(C(C)C)c1=O [Example 2, Acetic acid 3-[2,6-dichloro-4-(6-cyano-3,5-dioxo-4,5-dihydro-3H-[1,2,4]triazin-2-yl)-phenoxy]-5-isopropyl-6-oxo-6H-pyridazin-1-ylmethyl ester] | 4.58 ± 0.74 ×10⁻⁶ cm/s | 71.0 | 
CC(C)C(=O)OCn1nc(Oc2c(Cl)cc(-n3nc(C#N)c(=O)[nH]c3=O)cc2Cl)cc(C(C)C)c1=O [Example 5, Isobutyric acid 3-[2,6-Dichloro-4-(6-cyano-3,5-dioxo-4,5-dihydro-3H-[1,2,4]triazin-2-yl)-phenoxy]-5-isopropyl-6-oxo-6H-pyridazin-1-ylmethyl ester] | 8.87 ± 0.63 ×10⁻⁶ cm/s | 47.9 | Bioavailability of parent after dosing with the prodrug versus dosing with parent [2]: comparable; Variability in the oral exposure versus dosing with parent [2]: reduced; Species detected in plasma after oral dosing of the prodrug ([2]; prodrug and parent monitored): only the parent was detected; Absorption of the prodrug compared with the parent [3]: faster than the parent; Variability in exposure of the parent after dosing with the prodrug versus dosing with parent [3]: improved; Species detected in plasma after oral dosing of the prodrug ([3]; prodrug and parent monitored): only the parent was detected; EC50 (THR-beta/RXR/GRIP): > 57.6 µM
CC(C)c1cc(Oc2c(Cl)cc(-n3nc(C#N)c(=O)[nH]c3=O)cc2Cl)nn(COC(=O)N2CCOCC2)c1=O [Example 6, Morpholine-4-carboxylic acid 3-[2,6-dichloro-4-(6-cyano-3,5-dioxo-4,5-dihydro-3H-[1,2,4]triazin-2-yl)-phenoxy]-5-isopropyl-6-oxo-6H-pyridazin-1-ylmethyl ester] | 1.24 ± 0.24 ×10⁻⁶ cm/s | 101.5 | 
CC(C)c1cc(Oc2c(Cl)cc(-n3nc(C#N)c(=O)[nH]c3=O)cc2Cl)nn(COC(=O)c2cnccn2)c1=O [Example 8, Pyrazine-2-carboxylic acid 3-[2,6-dichloro-4-(6-cyano-3,5-dioxo-4,5-dihydro-3H-[1,2,4]triazin-2-yl)-phenoxy]-5-isopropyl-6-oxo-6H-pyridazin-1-ylmethyl ester] | 0.92 ± 0.11 ×10⁻⁶ cm/s | 92.8 | 
CC(C)c1cc(Oc2c(Cl)cc(-n3nc(C#N)c(=O)[nH]c3=O)cc2Cl)nn(COC(=O)CN2CCOCC2)c1=O [Example 12, Morpholin-4-yl-acetic acid 3-[2,6-dichloro-4-(6-cyano-3,5-dioxo-4,5-dihydro-3H-[1,2,4]triazin-2-yl)-phenoxy]-5-isopropyl-6-oxo-6H-pyridazin-1-ylmethyl ester] | 1.75 ± 0.65 ×10⁻⁶ cm/s | 95.0 | 
CC(C)c1cc(Oc2c(Cl)cc(-n3nc(C#N)c(=O)[nH]c3=O)cc2Cl)nn(COC(=O)CCC(=O)O)c1=O [Example 13, Succinic acid mono-{3-[2,6-dichloro-4-(6-cyano-3,5-dioxo-4,5-dihydro-3H-[1,2,4]triazin-2-yl)-phenoxy]-5-isopropyl-6-oxo-6H-pyridazin-1-ylmethyl}ester] | 0.23 ± 0.06 ×10⁻⁶ cm/s | 84.4 | 
CC(C)c1cc(Oc2c(Cl)cc(-n3nc(C#N)c(=O)[nH]c3=O)cc2Cl)n[nH]c1=O [Ia, 2-[3,5-Dichloro-4-(5-isopropyl-6-oxo-1,6-dihydro-pyridazin-3-yloxy)-phenyl]-3,5-dioxo-2,3,4,5-tetrahydro-[1,2,4]triazine-6-carbonitrile, reference compound] |  |  | AUC [2, 4]: 2,936 ng * Hours/mL; Tmax [2, 4]: 3 h; AUC Extrap [3, 4]: 28,663 ng * Hours/mL; Tmax [3, 4]: 5 h
